Reference: patent US20190225650A1, “PEPTIDOMIMETIC MACROCYCLES AND USE THEREOF IN REGULATING HIF1ALPHA” (AILERON THERAPEUTICS, INC., priority 2013, published 2019)
Bridge positions count the residues as written; N and C are the ends. Square brackets hold non-standard residues; d marks the D form. Peptide text beside a SMILES is read from it. R8 = C=CCCCCCC[C@@](C)(N)C(=O)O; S5 = C=CCCC[C@](C)(N)C(=O)O; Nle = CCCC[C@H](N)C(=O)O; Dap = NC[C@H](N)C(=O)O

System: HRE-bla ME-180 cells
Experiment: Reporter gene assay (HRE-bla ME-180 HIF reporter, GeneBLAzer)
Assay type: cell-based, human
Conditions: for EC50: 24 hour normoxia
Procedure: The following reagents were used:
• DMEM+GutaMAX: (#10569044, Invitrogen) • Black clear bottom plates: (#3603, Costar) • HRE-bla-ME-180 cell line: (#K1644, Invitrogen) • Gene-Blazer reagent & protocol: (#K1096, Invitrogen) • Plate reader: Biotek Synergy 2 • Chetomin: (C9623, Sigma)
4 hours prior to experiment: HRE-bla ME-180 cells were seeded at a density of 20,000 cells/well in a volume of 180 μl in black clear bottom 96-well plates. 180 μl of assay medium was added to the cell-free control wells. Incubation was conducted at 37° C., 5% CO2 for 4 hours.
Diluted chetomin was used as a positive control. Chetomin was diluted in 100% DMSO to a 10 mM stock concentration. A 1 mM stock of chetomin was prepared in 100% DMSO. Then the 1 mM chetomin stock was serially diluted in 1:4 in 100% DMSO. Finally, 50, 12.5, 3.125, 0.78, 0.2, 0.05 μM stock of chetomin in 5% DMSO/water were prepared by adding 114 μL water+6 μL chetomin in DMSO.
Test peptides were diluted before use. The test peptides were diluted in 100% DMSO to a 10 mM stock concentration. Then each 10 mM peptide stock was diluted in 1:3 in 100% DMSO. Finally, 300, 100, 33.3, 11.1, 3.7, 1.2 μM stock of each peptide in 5% DMSO/water were prepared by adding 129.2 μL water+4 μL peptide in DMSO.
20 μl of peptide, chetomin dilution, or DMSO/water control were added to the appropriate wells of a plate to achieve 200 μL final volumes in 0.3% DMSO/media. The plate was first incubated for 18-20 hours in normoxia incubator (37° C. in humidified 5% CO2, 20% O2 atmosphere). Then the plate was transferred to hypoxia incubator for 24 hours (37° C. in humidified 5% CO2, 1% O2 atmosphere)
6× LiveBLAzer™-FRET B/G (CCF4-AM) Substrate Mixture was prepared according to CellSensor™ HRE-bla ME-180 Cell-based Assay Protocol (Invitrogen) and added into each well. Solution A (CCF4-AM) was reconstituted in DMSO to a working concentration of 1 mM, divided in aliquots, and stored at −20° C. The 6× LiveBLAzer-FRET B/G (CCF4-AM) Substrate mixture was prepared by mixing 6 μl of Solution A, 60 μl of Solution B, and 934 μl Solution C.
The plates were removed from incubator and equilibrated to RT for a few minutes. Then 20 μl of 6× Substrate mixture was added to each well. The plates were then incubated at room temperature for 3 hr in the dark and read at 409 Ex/460Em and 409Ex/530Em using the “GeneBlazer-Tungsten with export” program on the Synergy 2.
The average percentage of maximum inhibition was obtained by comparing the peptide treated cells (30 μM) to DMSO vehicle control treated cells. The results are shown in the columns “ME-180 HIF Reporter EC50 (μM) −24 hr normoxia” and “18 h Avg % max inhibition at top conc (HIF Rptr-24 hrsnormoxia) (μM)” of Table 6.

Row | EC50 [µM] | SMILES | 18 h Avg % max inhibition at top conc (HIF Rptr-24 hrs normoxia) (μM)
1 | 5 to 15 | CCCC[C@H](NC(=O)[C@H](CC(C)C)NC(=O)[C@@H](NC(=O)[C@H](CCC(=O)O)NC(=O)[C@H](CCC(=O)O)NC(=O)[C@H](CC(=O)O)NC(=O)[C@@H](NC(=O)[C@H](Cc1ccccc1)NC(C)=O)[C@@H](C)CC)C(C)C)C(=O)N[C@@]1(C)CCCC=CCCC[C@@](C)(C(=O)N[C@@H](CCCC)C(=O)N[C@@H](C)C(=O)N[C@@H](CC(C)C)C(=O)N[C@@H](CC(=O)O)C(=O)N[C@@H](CCCNC(=N)N)C(N)=O)NC(=O)[C@H]([C@@H](C)CC)NC(=O)[C@H](C(C)C)NC(=O)[C@H](CC(C)C)NC1=O [SP-27] (Ac-FIDEEVL[Nle][S5]LVI[S5][Nle]ALDR-NH2; staple 9-13) | ++++ (≥50: ++++)
2 | > 30 | CCCC[C@H](NC(=O)[C@H](CCC(=O)O)NC(=O)[C@@H](NC(=O)[C@@H](NC(=O)[C@H](CC(C)C)NC(=O)[C@]1(C)CCCC=CCCC[C@](C)(NC(=O)[C@H](CCC(=O)O)NC(=O)[C@H](CC(=O)O)NC(=O)[C@@H](NC(=O)[C@H](Cc2ccccc2)NC(C)=O)[C@@H](C)CC)C(=O)N[C@@H](C(C)C)C(=O)N[C@@H](CC(C)C)C(=O)N[C@@H](CCCC)C(=O)N1)C(C)C)[C@@H](C)CC)C(=O)N[C@@H](C)C(=O)N[C@@H](CC(C)C)C(=O)N[C@@H](CC(=O)O)C(=O)N[C@@H](CCCNC(=N)N)C(=O)N[C@H](C(=O)N[C@@H](CCCCN)C(=O)N[C@@H](CCC(=O)O)C(=O)N[C@@H](CC(C)C)C(=O)N1CCC[C@H]1C(=O)N[C@@H](CCC(=O)O)C(=O)N[C@@H](CC(C)C)C(=O)N[C@@H](Cc1c[nH]c2ccccc12)C(=O)N[C@@H](CC(C)C)C(N)=O)[C@@H](C)CC [SP-106] (Ac-FIDE[S5]VL[Nle][S5]LVIE[Nle]ALDRIKELPELWL-NH2; staple 5-9) | 
3 | ≤ 5 | CCCC[C@H](NC(=O)[C@H](CC(C)C)NC(=O)[C@@H](NC(=O)[C@H](CCC(=O)O)NC(=O)[C@H](CCC(=O)O)NC(=O)[C@H](CC(=O)O)NC(=O)[C@@H](NC(=O)[C@H](Cc1ccccc1)NC(C)=O)[C@@H](C)CC)C(C)C)C(=O)N[C@@]1(C)CCCC=CCCC[C@@](C)(C(=O)N[C@@H](CO)C(=O)N[C@@H](C)C(=O)N[C@@H](CC(C)C)C(=O)N[C@@H](CC(=O)O)C(=O)N[C@@H](CCCNC(=N)N)C(=O)N[C@H](C(N)=O)[C@@H](C)CC)NC(=O)[C@H]([C@@H](C)CC)NC(=O)[C@H](C(C)C)NC(=O)[C@H](CC(C)C)NC1=O [SP-54] (Ac-FIDEEVL[Nle][S5]LVI[S5]SALDRI-NH2; staple 9-13) | ++++ (≥50: ++++)
4 | > 30 | CC[C@H](C)[C@H](NC(=O)[C@H](Cc1ccccc1)NC(C)=O)C(=O)N[C@@H](CC(=O)O)C(=O)N[C@@H](CCC(=O)O)C(=O)N[C@@H](CCC(=O)O)C(=O)N[C@H](C(=O)N[C@]1(C)CCCCCCC=CCCC[C@@](C)(C(=O)NCC(=O)N[C@@H](CC(C)C)C(=O)N[C@@H](CC(=O)O)C(=O)N[C@@H](CCCNC(=N)N)C(=O)N[C@H](C(=O)N[C@@H](CCCCN)C(=O)N[C@@H](CCC(=O)O)C(=O)N[C@@H](CC(C)C)C(=O)N2CCC[C@H]2C(=O)N[C@@H](CCC(=O)O)C(=O)N[C@@H](CC(C)C)C(=O)N[C@@H](Cc2c[nH]c3ccccc23)C(=O)N[C@@H](CC(C)C)C(N)=O)[C@@H](C)CC)NC(=O)[C@H](CCC(=O)O)NC(=O)[C@H]([C@@H](C)CC)NC(=O)[C@H](C(C)C)NC(=O)[C@H](CC(C)C)NC(=O)[C@H](CO)NC(=O)[C@H](CCSC)NC1=O)C(C)C [SP-84] (Ac-FIDEEV[R8]MSLVIE[S5]GLDRIKELPELWL-NH2; staple 7-14) | + (<10: +)
5 | 5 to 15 | CCCC[C@H](NC(=O)[C@H](CC(C)C)NC(=O)[C@@H](NC(=O)[C@H](CN)NC(=O)[C@H](CCC(=O)O)NC(=O)[C@H](CC(=O)O)NC(=O)[C@@H](NC(=O)[C@H](Cc1ccccc1)NC(C)=O)[C@@H](C)CC)C(C)C)C(=O)N[C@@]1(C)CCCC=CCCC[C@@](C)(C(=O)N[C@@H](CCCC)C(=O)N[C@@H](C)C(=O)N[C@@H](CC(C)C)C(=O)N[C@@H](CC(=O)O)C(=O)N[C@@H](CCCNC(=N)N)C(=O)N[C@H](C(N)=O)[C@@H](C)CC)NC(=O)[C@H]([C@@H](C)CC)NC(=O)[C@H](C(C)C)NC(=O)[C@H](CC(C)C)NC1=O [SP-63] (Ac-FIDE[Dap]VL[Nle][S5]LVI[S5][Nle]ALDRI-NH2; staple 9-13) | +++ (≤25 but <50: +++)
6 | ≤ 5 | CCCC[C@H](NC(=O)[C@]1(C)CCCC=CCCC[C@](C)(NC(=O)[C@H](CO)NC(=O)[C@H](CC(C)C)NC(=O)[C@@H](NC(=O)[C@H](CCC(=O)O)NC(=O)[C@H](CCC(=O)O)NC(=O)[C@H](CC(=O)O)NC(=O)[C@@H](NC(=O)[C@H](Cc2ccccc2)NC(C)=O)[C@@H](C)CC)C(C)C)C(=O)N[C@@H](CC(C)C)C(=O)N[C@@H](C(C)C)C(=O)N[C@@H]([C@@H](C)CC)C(=O)N1)C(=O)N[C@@H](C)C(=O)N[C@@H](CC(C)C)C(=O)N[C@@H](CC(=O)O)C(=O)N[C@@H](CCCNC(=N)N)C(=O)N[C@H](C(N)=O)[C@@H](C)CC [SP-50] (Ac-FIDEEVLS[S5]LVI[S5][Nle]ALDRI-NH2; staple 9-13) | ++++ (≥50: ++++)
7 | > 30 | CCCC[C@H](NC(=O)[C@H](CC(C)C)NC(=O)[C@@H](NC(=O)[C@H](CCC(=O)O)NC(=O)[C@H](CCC(=O)O)NC(=O)[C@H](CC(=O)O)NC(=O)[C@@H](NC(=O)[C@H](Cc1ccccc1)NC(C)=O)[C@@H](C)CC)C(C)C)C(=O)N[C@@]1(C)CCCC=CCCC[C@@](C)(C(=O)N[C@@H](CN)C(=O)N[C@@H](C)C(=O)N[C@@H](CC(C)C)C(=O)N[C@@H](CC(=O)O)C(=O)N[C@@H](CCCNC(=N)N)C(=O)N[C@H](C(N)=O)[C@@H](C)CC)NC(=O)[C@H]([C@@H](C)CC)NC(=O)[C@H](C(C)C)NC(=O)[C@H](CC(C)C)NC1=O [SP-66] (Ac-FIDEEVL[Nle][S5]LVI[S5][Dap]ALDRI-NH2; staple 9-13) | ++ (≤10 but <25: ++)
8 | 5 to 15 | CCCC[C@H](NC(=O)[C@H](CC(C)C)NC(=O)[C@@H](NC(=O)[C@H](CCC(=O)O)NC(=O)[C@H](CCC(=O)O)NC(=O)[C@H](CC(=O)O)NC(=O)[C@@H](NC(=O)[C@H](Cc1ccccc1)NC(C)=O)[C@@H](C)CC)C(C)C)C(=O)N[C@@]1(C)CCCC=CCCC[C@@](C)(C(=O)N[C@@H](CCCC)C(=O)N[C@@H](C)C(=O)N[C@@H](CC(C)C)C(=O)N[C@@H](CO)C(=O)N[C@@H](CCCNC(=N)N)C(=O)N[C@H](C(N)=O)[C@@H](C)CC)NC(=O)[C@H]([C@@H](C)CC)NC(=O)[C@H](C(C)C)NC(=O)[C@H](CC(C)C)NC1=O [SP-57] (Ac-FIDEEVL[Nle][S5]LVI[S5][Nle]ALSRI-NH2; staple 9-13) | ++++ (≥50: ++++)
9 | 5 to 15 | CCCC[C@H](NC(=O)[C@H](CC(C)C)NC(=O)[C@@H](NC(=O)[C@H](CCC(=O)O)NC(=O)[C@H](CCC(=O)O)NC(=O)[C@H](CC(=O)O)NC(=O)[C@@H](NC(=O)[C@H](Cc1ccccc1)NC(C)=O)[C@@H](C)CC)C(C)C)C(=O)N[C@@]1(C)CCCC=CCCC[C@@](C)(C(=O)N[C@@H](CCCC)C(=O)N[C@@H](C)C(=O)N[C@@H](CC(C)C)C(=O)N[C@@H](CC(=O)O)C(=O)N[C@@H](CCCNC(=N)N)C(=O)N[C@H](C(N)=O)[C@@H](C)CC)NC(=O)[C@H]([C@@H](C)CC)NC(=O)[C@H](C(C)C)NC(=O)[C@H](CO)NC1=O [SP-51] (Ac-FIDEEVL[Nle][S5]SVI[S5][Nle]ALDRI-NH2; staple 9-13) | +++ (≤25 but <50: +++)
